Laboratory results: the supplement of paper PMC8967900

How the values were obtained:
Assay in all cases: selective drug sensitivity score (sDSS, relative to normal bone marrow) (sDSS (score)); higher = more potent and effective on the cell line relative to normal bone marrow cells
Details in all cases: 72 h
MOLT-4 = test system: MOLT-4
PEER = test system: PEER
LC4-1 = test system: LC4-1
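Note: ALL cell lines in 384-well plates, five doses spanning 10,000-fold, each plate scaled between vehicle and 100 µmol/L benzalkonium chloride controls, sDSS an adapted area-under-curve metric.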

Structure (SMILES)	selective drug sensitivity score (MOLT-4)	selective drug sensitivity score (PEER)	selective drug sensitivity score (LC4-1)
O=c1[nH]c(C2CCCN2)nc2c1oc1ccc(Cl)cc12 (stereo unspecified) (top concentration 10000 nM)	-2.8	0.3	1.8
NS(=O)(=O)OC[C@@H]1C[C@@H](n2ccc3c(N[C@H]4CCc5ccccc54)ncnc32)C[C@@H]1O [Pevonedistat] (top concentration 10000 nM)	14	19.7	10
CN1CC[C@H](c2c(O)cc(O)c3c(=O)cc(-c4ccccc4Cl)oc23)[C@H](O)C1 [Alvocidib] (top concentration 10000 nM)	-2.5	-2.1	-3.3
COc1cccc2c1C(=O)c1c(O)c3c(c(O)c1C2=O)C[C@@](O)(C(=O)CO)C[C@@H]3O[C@H]1C[C@H](N)[C@H](O)[C@H](C)O1 [Doxorubicin] (top concentration 1000 nM)	10.5	-3.62	5.48
C[C@]1(c2nc3c(C(N)=O)cccc3[nH]2)CCCN1 [Veliparib] (top concentration 10000 nM)	-2.88	-4.18	-4.18
CC1(C)OCCn2c1nc1c(N3CCOCC3)nc(-c3cnc(N)nc3)nc12 [GDC-0084] (top concentration 10000 nM)	6.9	2	4.2
Nc1cccc2c1CN(C1CCC(=O)NC1=O)C2=O (stereo unspecified) [Lenalidomide] (top concentration 100000 nM)	-2.28	-1.28	-0.58
Cn1c(Nc2ccc(C(F)(F)F)cc2)nc2cc(Oc3ccnc(-c4ncc(C(F)(F)F)[nH]4)c3)ccc21 [NVP-RAF265] (top concentration 1000 nM)	3.48	9.78	7.48
CN1CCc2c(c3ccccc3n2Cc2ccc(C(=O)NO)cc2)C1 [Tubastatin_A] (top concentration 10000 nM)	-0.04	3.36	6.76
CCc1cnn2c(NCc3ccc[n+]([O-])c3)cc(N3CCCC[C@H]3CCO)nc12 [Dinaciclib] (top concentration 1000 nM)	-5.84	-0.24	-3.64
CCN1C(=O)CNc2ncc(-c3ccc(-c4nc[nH]n4)nc3C)nc21 [CC-115] (top concentration 10000 nM)	3.04	2.34	4.54
Sc1ncnc2nc[nH]c12 [Mercaptopurine] (top concentration 10000 nM)	8.7	6.7	17.1
CN(C)CCOc1ccc(/C(=C(/CCCl)c2ccccc2)c2ccccc2)cc1 [Toremifene] (top concentration 10000 nM)	2.58	1.28	1.08
COc1cc(Nc2ncc(F)c(Nc3ccc4c(n3)N(COP(=O)(O)O)C(=O)C(C)(C)O4)n2)cc(OC)c1OC [Fostamatinib] (top concentration 2500 nM)	-2.04	0.66	2.56
CC[C@H](Nc1ncnc2[nH]cnc12)c1nc2cccc(F)c2c(=O)n1-c1ccccc1 [Idelalisib] (top concentration 10000 nM)	-1.36	-2.16	-0.16
CC1CCC(n2c3cnccc3c3cnc(Nc4ccc5c(n4)CCN(C(=O)CO)C5)nc32)CC1 (stereo unspecified) [AMG-925] (top concentration 1000 nM)	2.34	5.54	9.24

Structure (SMILES)	selective drug sensitivity score (MOLT-4)	selective drug sensitivity score (PEER)	selective drug sensitivity score (LC4-1)
Cc1ccc(C(=O)N(CCCN)[C@@H](c2oc3cc(Cl)ccc3c(=O)c2Cc2ccccc2)C(C)C)cc1 (top concentration 100 nM)	1.16	4.96	2.86
Nc1ncn([C@@H]2O[C@H](CO)[C@@H](O)[C@H]2O)c(=O)n1 [Azacitidine] (top concentration 10000 nM)	4.94	6.64	6.04
C=CC(=O)N1CCC[C@@H](n2nc(-c3ccc(Oc4ccccc4)cc3)c3c(N)ncnc32)C1 [Ibrutinib] (top concentration 1000 nM)	1.4	0.6	1
Cc1c(C(=O)Nc2ccc(N3C[C@@H](C)O[C@@H](C)C3)nc2)cccc1-c1ccc(OC(F)(F)F)cc1 [Sonidegib] (top concentration 10000 nM)	1.08	0.88	1.08
COc1cc2c(Oc3ccc(NC(=O)C4(C(=O)Nc5ccc(F)cc5)CC4)cc3F)ccnc2cc1OCCCN1CCOCC1 [Foretinib] (top concentration 1000 nM)	0.64	5.04	2.04
CC1=NN(c2ccc(C(=O)O)cc2)C(=O)C1=Cc1ccc(-c2cc(C)c(C)cc2[N+](=O)[O-])o1 [C646] (top concentration 25000 nM)	0.24	-0.66	1.84
Cc1cc(Nc2ncc(Cl)c(Nc3ccccc3S(=O)(=O)C(C)C)n2)c(OC(C)C)cc1C1CCNCC1 [Ceritinib] (top concentration 2500 nM)	-3.44	-3.44	3.06
Cc1cn(-c2cc(NC(=O)c3ccc(C)c(Nc4nccc(-c5cnccn5)n4)c3)cc(C(F)(F)F)c2)cn1 [Radotinib] (top concentration 10000 nM)	1.2	19.3	13.8
CCCCc1nc2cc(/C=C/C(=O)NO)ccc2n1CCN(CC)CC [Pracinostat] (top concentration 10000 nM)	3.48	3.98	6.18
Cn1cnc2c(F)c(Nc3ccc(Br)cc3F)c(C(=O)NOCCO)cc21 [Binimetinib] (top concentration 1000 nM)	-2.02	0.58	2.18
O=C(CCCCCCC(=O)Nc1ccc([C@H]2O[C@@H](CSc3nc(-c4ccccc4)c(-c4ccccc4)o3)C[C@@H](c3ccc(CO)cc3)O2)cc1)NO [Tubacin] (top concentration 10000 nM)	8.34	7.14	7.14
Cn1nccc1Nc1nccc(-c2ccn([C@H](CO)c3ccc(Cl)c(F)c3)c(=O)c2)n1 [Ravoxertinib] (top concentration 10000 nM)	-1.2	-0.3	7
NC[C@@](O)(c1ccc(Cl)cc1)c1ccc(-c2cn[nH]c2)cc1 (top concentration 10000 nM)	-0.42	3.08	1.28
CC1(COc2ccc3c(c2)ncn3-c2ccc3cccc(N4CCC(N)CC4)c3n2)COC1 [Crenolanib] (top concentration 10000 nM)	-4.02	-1.52	-3.92
COCCNCc1ccc(-c2cc3nccc(Oc4ccc(NC(=S)NC(=O)Cc5ccc(F)cc5)cc4F)c3s2)nc1 [Glesatinib] (top concentration 2500 nM)	-0.96	4.54	1.94
O=C(NC1CCNCC1)c1n[nH]cc1NC(=O)c1c(Cl)cccc1Cl [AT7519] (top concentration 10000 nM)	-7.66	-3.56	-4.26
